# From patent US20260248783A1 (ASCLETIS BIOSCIENCE CO., LTD., priority 2021, published 2026)
# Molecular target: T1, PD-1/PD-L1 (Homo sapiens, UniProt Q9NZQ7)
# T1 construct: Recombinant human PD-L1 protein (19-238) with a Histag at the C-terminus; purchased AcroBiosystems PD1-H5229 (PD-L1); PD1-H5257 (PD-1)
# Experiment: PD-1/PD-L1 Homogeneous Time-Resolved Fluorescence (HTRF) Binding Assay
# Settings: PD-1/PD-L1 HTRF activity; 3 nM PD1, 10 nM PD-L1, 25° C.
# Protocol: Example 107. PD-1/PD-L1 Homogeneous Time-Resolved Fluorescence (HTRF) Binding Assay
# The assays were conducted in a standard black 384-well polystyrene plate with a final volume of 20 μL. Inhibitors were first serially diluted in DMSO and then added to the plate wells before the addition of other reaction components. The final concentration of DMSO in the assay was 1%. The assays were carried out at 25° C. in the PBS buffer (pH 7.4) with 0.05% Tween-20 and 0.1% BSA. Recombinant human PD-L1 protein (19-238) with a Histag at the C-terminus was purchased from AcroBiosystems (PD1-H5229). Recombinant human PD-1 protein (25-167) with Fe tag at the C-terminus was also purchased from AcroBiosystems (PD1-H5257). PD-L1 and PD-1 proteins were diluted in the assay buffer and 10 μL was added to the plate well. Plates were centrifuged and proteins were preincubated with inhibitors for 40 minutes. The incubation was followed by the addition of 10 μL of HTRF detection buffer supplemented with Europium cryptate-labeled anti-human IgG (PerkinElmer-AD0212) specific for Fe and anti-His antibody conjugated to SureLight®—Allophycocyanin (APC, PerkinElmer-AD0059H). After centrifugation, the plate was incubated at 25° C. for 60 min. before reading on a PHERAstar FS plate reader (665 nm/620 nm ratio). Final concentrations in the assay were […], 10 nM PD-L1, 1 nM europium anti-human IgG and 20 nM anti-His-Allophycocyanin. IC50 determination was performed by fitting the curve of percent control activity versus the log of the inhibitor concentration.
# T1 sequence (Q9NZQ7 19-238): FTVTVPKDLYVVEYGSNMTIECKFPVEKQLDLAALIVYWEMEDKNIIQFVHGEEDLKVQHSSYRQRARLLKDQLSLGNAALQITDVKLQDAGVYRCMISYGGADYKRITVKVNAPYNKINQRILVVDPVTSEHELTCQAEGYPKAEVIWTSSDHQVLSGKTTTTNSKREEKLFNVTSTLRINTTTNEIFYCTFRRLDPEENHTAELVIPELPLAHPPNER
row,Compound,IC50
1,"Cn1c(-c2cccc(-c3cccc(-c4nc5c(=O)n(C[C@@H]6CCC(=O)N6)ccc5n4C)c3Cl)c2Cl)nc2c(=O)n(C[C@@H]3CCC(=O)N3)ccc21 [Compound 6, 2,2′-(2,2′-dichloro-[1,1′-biphenyl]-3,3′-diyl)bis(1-methyl-5-(((S)-5-oxopyrrolidin-2-yl)methyl)-1,5-dihydro-4H-imidazo[4,5-c]pyridin-4-one)]",≥ 100 nM
2,"Cn1c(-c2cccc(-c3cccc(-c4nc5c(c(=O)n(C[C@@H]6CCC(=O)N6)c(=O)n5C)n4C)c3Cl)c2Cl)nc2c1c(=O)n(C[C@@H]1CCC(=O)N1)c(=O)n2C [Compound 10, 8,8′-(2,2′-dichloro-[1,1′-biphenyl]-3,3′-diyl)bis(3,7-dimethyl-1-(((S)-5-oxopyrrolidin-2-yl)methyl)-3,7-dihydro-1H-purine-2,6-dione)]",≥ 100 nM
3,"Cc1cn2nc(-c3cccc(-c4cccc(-c5cc6c(=O)n(CC(C)N[C@@H](CO)C(=O)O)c(C)cn6n5)c4Cl)c3Cl)cc2c(=O)n1CC(C)N[C@@H](CO)C(=O)O (stereo partly drawn) [Compound 87, (2S,2'S)-2,2′-((((2,2′-dichloro-[1,1′-biphenyl]-3,3′-diyl)bis(6-methyl-4-oxopyrazolo[1,5-a]pyrazine-2,5(4H)-diyl))bis(propane-1,2-diyl))bis(azanediyl))bis(3-hydroxypropanoic acid)]",≥ 100 nM
4,"Cc1cn2nc(-c3cccc(-c4cccc(-c5cc6c(=O)n(CCN[C@@H](CCO)C(=O)O)c(C)cn6n5)c4Cl)c3Cl)cc2c(=O)n1CCN[C@@H](CCO)C(=O)O [Compound 62, (2S,2'S)-2,2′-((((2,2′-dichloro-[1,1′-biphenyl]-3,3′-diyl)bis(6-methyl-4-oxopyrazolo[1,5-a]pyrazine-2,5(4H)-diyl))bis(ethane-2,1-diyl))bis(azanediyl))bis(4-hydroxybutanoic acid)]",10 to 100 nM
5,"O=c1c2cc(-c3cccc(-c4cccc(-c5cc6c(=O)n(CCn7cccn7)cnn6c5)c4Cl)c3Cl)cn2ncn1CCn1cccn1 [Compound 21, 6,6′-(2,2′-dichloro-[1,1′-biphenyl]-3,3′-diyl)bis(3-(2-(1H-pyrazol-1-yl)ethyl)pyrrolo[2,1-f][1,2,4]triazin-4(3H)-one)]",≥ 100 nM
6,"CCc1nn2cc(-c3cccc(-c4cccc(-c5cc6c(=O)n(CCN[C@@H](CO)C(=O)O)c(CC)nn6c5)c4Cl)c3Cl)cc2c(=O)n1CCN[C@@H](CO)C(=O)O [Compound 65, (2S,2'S)-2,2′-((((2,2′-dichloro-[1,1′-biphenyl]-3,3′-diyl)bis(2-ethyl-4-oxopyrrolo[2,1-f][1,2,4]triazine-6,3(4H)-diyl))bis(ethane-2,1-diyl))bis(azanediyl))bis(3-hydroxypropanoic acid)]",10 to 100 nM
7,"Cc1cn2nc(-c3cccc(-c4cccc(-c5cc6c(=O)n(C[C@H]7CCNC7)c(C)cn6n5)c4Cl)c3Cl)cc2c(=O)n1C[C@H]1CCNC1 [Compound 81, 2,2′-(2,2′-dichloro-[1,1′-biphenyl]-3,3′-diyl)bis(6-methyl-5-(((S)-pyrrolidin-3-yl)methyl)pyrazolo[1,5-a]pyrazin-4(5H)-one)]",10 to 100 nM
8,"Cc1cn2cc(-c3cccc(-c4cccc(-c5cc6c(=O)n(CCN7C[C@@H](O)C[C@H]7C(=O)O)c(C)cn6c5)c4Cl)c3Cl)cc2c(=O)n1CCN1C[C@@H](O)C[C@H]1C(=O)O [Compound 50, (2S,2'S,4S,4'S)-1,1′-(((2,2′-dichloro-[1,1′-biphenyl]-3,3′-diyl)bis(3-methyl-1-oxopyrrolo[1,2-a]pyrazine-7,2(1H)-diyl))bis(ethane-2,1-diyl))bis(4-hydroxypyrrolidine-2-carboxylic acid)]",10 to 100 nM
9,"Cc1cn2cc(-c3cccc(-c4cccc(-c5cc6c(=O)n(CCN[C@@H](CCO)C(=O)O)c(C)cn6c5)c4Cl)c3Cl)cc2c(=O)n1CCN[C@@H](CCO)C(=O)O [Compound 58, (2S,2'S)-2,2′-((((2,2′-dichloro-[1,1′-biphenyl]-3,3′-diyl)bis(3-methyl-1-oxopyrrolo[1,2-a]pyrazine-7,2(1H)-diyl))bis(ethane-2,1-diyl))bis(azanediyl))bis(4-hydroxybutanoic acid)]",10 to 100 nM
10,"CC(=O)NCCNCc1cn2cc(-c3cccc(-c4cccc(-c5cc6c(=O)n(C)c(CNCCNC(C)=O)cn6c5)c4Cl)c3Cl)cc2c(=O)n1C [Compound 44, N,N′-(((((2,2′-dichloro-[1,1′-biphenyl]-3,3′-diyl)bis(2-methyl-1-oxo-1,2-dihydropyrrolo[1,2-a]pyrazine-7,3-diyl))bis(methylene))bis(azanediyl))bis(ethane-2,1-diyl))diacetamide]",10 to 100 nM
11,"Cc1cn2nc(-c3cccc(-c4cccc(-c5cc6c(=O)n(CCN[C@H](CO)C(=O)O)c(C)cn6n5)c4Cl)c3Cl)cc2c(=O)n1CCN[C@H](CO)C(=O)O [Compound 61, (2R,2′R)-2,2′-((((2,2′-dichloro-[1,1′-biphenyl]-3,3′-diyl)bis(6-methyl-4-oxopyrazolo[1,5-a]pyrazine-2,5(4H)-diyl))bis(ethane-2,1-diyl))bis(azanediyl))bis(3-hydroxypropanoic acid)]",10 to 100 nM
12,"Cn1c(CN2CC[C@H](O)C2)cn2cc(-c3cccc(-c4cccc(-c5cc6c(=O)n(C)c(CN7CC[C@H](O)C7)cn6c5)c4Cl)c3Cl)cc2c1=O [Compound 46, 7,7′-(2,2′-dichloro-[1,1′-biphenyl]-3,3′-diyl)bis(3-(((S)-3-hydroxypyrrolidin-1-yl)methyl)-2-methylpyrrolo[1,2-a]pyrazin-1(2H)-one)]",10 to 100 nM

# The remaining lines, values ahead:
row,IC50,Compound
1,10 to 100 nM,"O=c1c2cc(-c3cccc(-c4cccc(-c5cc6c(=O)n(CCn7cncn7)cnn6c5)c4Cl)c3Cl)cn2ncn1CCn1cncn1 [Compound 22, 6,6′-(2,2′-dichloro-[1,1′-biphenyl]-3,3′-diyl)bis(3-(2-(1H-1,2,4-triazol-1-yl)ethyl)pyrrolo[2,1-f][1,2,4]triazin-4(3H)-one)]"
2,10 to 100 nM,"Cc1cn2cc(-c3cccc(-c4cccc(-c5cc6c(=O)n(C[C@@H]7CCCN7)c(C)cn6c5)c4Cl)c3Cl)cc2c(=O)n1C[C@@H]1CCCN1 [Compound 38, 7,7′-(2,2′-dichloro-[1,1′-biphenyl]-3,3′-diyl)bis(3-methyl-2-(((S)-pyrrolidin-2-yl)methyl)pyrrolo[1,2-a]pyrazin-1(2H)-one)]"
3,10 to 100 nM,"O=C1CC(Cn2cnn3cc(-c4cccc(-c5cccc(-c6cc7c(=O)n(CC8CNC(=O)C8)cnn7c6)c5Cl)c4Cl)cc3c2=O)CN1 (stereo not drawn) [Compound 18, 6,6′-(2,2′-dichloro-[1,1′-biphenyl]-3,3′-diyl)bis(3-((5-oxopyrrolidin-3-yl)methyl)pyrrolo[2,1-f][1,2,4]triazin-4(3H)-one)]"
4,< 10 nM,"O=C1CCC(Cn2cnn3c(F)c(-c4cccc(-c5cccc(-c6cc7c(=O)n(CC8CCC(=O)N8)cnn7c6F)c5Cl)c4Cl)cc3c2=O)N1 (stereo not drawn) [Compound 3, 6,6′-(2,2′-dichloro-[1,1′-biphenyl]-3,3′-diyl)bis(7-fluoro-3-((5-oxopyrrolidin-2-yl)methyl)pyrrolo[2,1-f][1,2,4]triazin-4(3H)-one)]"
5,< 10 nM,"Cn1c(CNCCO)cn2cc(-c3cccc(-c4cccc(-c5cc6c(=O)n(C)c(CNCCO)cn6c5)c4Cl)c3Cl)cc2c1=O [Compound 45, 7,7′-(2,2′-dichloro-[1,1′-biphenyl]-3,3′-diyl)bis(3-(((2-hydroxyethyl)amino)methyl)-2-methylpyrrolo[1,2-a]pyrazin-1(2H)-one)]"
6,< 10 nM,"O=C1CC[C@@H](Cn2ccn3nc(-c4cccc(-c5cccc(-c6nc7c(=O)n(C[C@@H]8CCC(=O)N8)ccn7n6)c5Cl)c4Cl)nc3c2=O)N1 [Compound 15, 2,2′-(2,2′-dichloro-[1,1′-biphenyl]-3,3′-diyl)bis(7-(((S)-5-oxopyrrolidin-2-yl)methyl)-[1,24]triazolo[1,5-a]pyrazin-8(7H)-one)]"
7,10 to 100 nM,"Cc1cn2nc(-c3cccc(-c4cccc(-c5cc6c(=O)n(CCNC7(C(=O)O)CCC(O)CC7)c(C)cn6n5)c4Cl)c3Cl)cc2c(=O)n1CCNC1(C(=O)O)CCC(O)CC1 (stereo not drawn) [Compound 88, 1,1′-((((2,2′-dichloro-[1,1′-biphenyl]-3,3′-diyl)bis(6-methyl-4-oxopyrazolo[1,5-a]pyrazine-2,5(4H)-diyl))bis(ethane-2,1-diyl))bis(azanediyl))bis(4-hydroxycyclohexane-1-carboxylic acid)]"
8,< 10 nM,"Cc1cn2nc(-c3cccc(-c4cccc(-c5cc6c(=O)n(C[C@@H]7C[C@@H](O)CN7)c(C)cn6n5)c4Cl)c3Cl)cc2c(=O)n1C[C@@H]1C[C@@H](O)CN1 [Compound 92, 2,2′-(2,2′-dichloro-[1,1′-biphenyl]-3,3′-diyl)bis(5-(((2S,4R)-4-hydroxypyrrolidin-2-yl)methyl)-6-methylpyrazolo[1,5-a]pyrazin-4(5H)-one)]"
9,10 to 100 nM,"Cc1cn2cc(-c3cccc(-c4cccc(-c5cc6c(=O)n(CCN7CC[C@H](O)C7)c(C)cn6c5)c4Cl)c3Cl)cc2c(=O)n1CCN1CC[C@H](O)C1 [Compound 48, 7,7′-(2,2′-dichloro-[1,1′-biphenyl]-3,3′-diyl)bis(2-(2-((S)-3-hydroxypyrrolidin-1-yl)ethyl)-3-methylpyrrolo[1,2-a]pyrazin-1(2H)-one)]"
